Some test systems named below: HT29 colon; DU-145 prostate; BT-549 breast; MDA-MB-435; HCT-15 colon; U251 CNS; HL-60(TB) leukemia.
What all share (test): growth of human tumour cells (NCI), 48 h

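96-well plates; 48 h exposure; 5 concentrations. Endpoints by linear interpolation between flanking doses. Not reached: highest tested concentration assigned. GI50 marks 50% less growth. The concentration for full growth arrest is given as TGI.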

In the case of `CCOC(=O)CC1C(CNC(=O)NC)OC(n2cnc3c(NC(=O)Nc4ccccc4)ncnc32)C1O[Si](C)(C)C(C)(C)C` (centres undefined), the GI50 in the assay on HT29 colon was 4.2 µM; in the assay on DU-145 prostate, 4.97 µM; with BT-549 breast, more than 100 µM; in the assay on MDA-MB-435, 6.21 µM; with HCT-15 colon, 8.5 µM; in the assay with U251 CNS, 4.69 µM. For the same compound, the TGI in the assay with HT29 colon is more than 100 µM; with DU-145 prostate it was 19.4 µM; with BT-549 breast, more than 100 µM; with MDA-MB-435 it was more than 100 µM; in the assay with HCT-15 colon it was more than 100 µM; in the assay with U251 CNS, 20.9 µM.

For `CCN(CC)CCOc1ccccc1-n1c(C)ccc1-c1ccccc1`, the GI50 was 6.22 µM in the assay on HT29 colon; 17.3 µM with DU-145 prostate; 20.5 µM with HL-60(TB) leukemia; 14.4 µM with MDA-MB-435; 12.6 µM in the assay with HCT-15 colon; 13.4 µM in the assay on U251 CNS. Also, the TGI in the assay with HT29 colon was 20.8 µM; in the assay with DU-145 prostate, 32.3 µM; in the assay on HL-60(TB) leukemia it was 40.6 µM; in the assay on MDA-MB-435, 29.9 µM; in the assay on HCT-15 colon it was 28.2 µM; in the assay with U251 CNS it was 27.4 µM.

With `Cc1cc(O)cc(-c2nn(C)cc2-c2cc(N3CCOCC3)nc(-c3cccnc3)n2)c1`, the GI50 in the assay with HT29 colon was 3.39 µM; in the assay with DU-145 prostate it was 3.97 µM; in the assay with BT-549 breast, 3.17 µM; in the assay with HL-60(TB) leukemia it was 2.81 µM; in the assay on HCT-15 colon, 2.63 µM; with U251 CNS, 4.19 µM. For the same compound, the TGI in the assay with HT29 colon is 21.9 µM; in the assay with DU-145 prostate, more than 100 µM; in the assay on BT-549 breast it was 20.8 µM; in the assay with HL-60(TB) leukemia, 20.2 µM; with HCT-15 colon, 23.4 µM; in the assay with U251 CNS it was 18.9 µM.

As for `N#Cc1cc2c(=S)[nH]c(=S)[nH]c2nc1SCc1ccccc1`, the GI50 in the assay with DU-145 prostate is 82.9 µM; in the assay with BT-549 breast, 47.2 µM; with HL-60(TB) leukemia it was 30.4 µM; in the assay on MDA-MB-435, 34.8 µM; in the assay on HCT-15 colon it was 33.4 µM; in the assay with U251 CNS, 29.5 µM. For the same compound, the TGI in the assay with DU-145 prostate is more than 100 µM; with BT-549 breast, more than 100 µM; with HL-60(TB) leukemia, 77.4 µM; in the assay with MDA-MB-435, more than 100 µM; in the assay on HCT-15 colon, more than 100 µM; in the assay on U251 CNS, more than 100 µM.

For the compound `Nc1ncc(-c2ccc3ncnc(N4CCc5cc(F)c(Cl)cc54)c3c2)cc1C(F)(F)F`, the GI50 in the assay with HT29 colon is 1.97 µM; in the assay with DU-145 prostate, 1.8 µM; in the assay on BT-549 breast, 1.07 µM; with HL-60(TB) leukemia, 0.981 µM; in the assay on HCT-15 colon it was 1.57 µM; in the assay on U251 CNS it was 3.5 µM. Also, the TGI in the assay on HT29 colon is more than 100 µM; with DU-145 prostate, more than 100 µM; in the assay on BT-549 breast it was 8.33 µM; with HL-60(TB) leukemia it was more than 100 µM; in the assay with HCT-15 colon, more than 100 µM; in the assay on U251 CNS, more than 100 µM.

On to `COc1ccccc1N1CCN(CC(O)Cn2c(=O)c3c(OC)nc(C)cc3c(=O)n2-c2ccccc2)CC1` (centres undefined), for which the GI50 with HT29 colon was more than 100 µM; with DU-145 prostate it was more than 100 µM; with HL-60(TB) leukemia, more than 100 µM; in the assay on MDA-MB-435, more than 100 µM; in the assay on HCT-15 colon it was more than 100 µM; in the assay with U251 CNS, 31.6 µM. For the same compound, the TGI in the assay with HT29 colon, in the assay with DU-145 prostate, with HL-60(TB) leukemia, with MDA-MB-435, in the assay on HCT-15 colon and with U251 CNS was more than 100 µM throughout.

Take `Clc1ccc2c(NCCNc3nc(N4CCCCC4)nc4ccccc34)ccnc2c1`: the GI50 in the assay on HT29 colon is 1.58 µM; in the assay on DU-145 prostate it was 3.24 µM; in the assay with BT-549 breast, 2.01 µM; in the assay with MDA-MB-435, 1.74 µM; with HCT-15 colon, 1.26 µM; in the assay on U251 CNS, 2.08 µM. The TGI is 4.1 µM in the assay with HT29 colon; 12.9 µM in the assay with DU-145 prostate; 4.68 µM with BT-549 breast; 3.43 µM in the assay on MDA-MB-435; 3.93 µM in the assay with HCT-15 colon; 5.15 µM with U251 CNS.

`NC1=C(/C(N)=N/O)C(c2ccccc2)c2ccc3ccccc3c2O1` (centres undefined): the GI50 was 1.16 µM in the assay on HT29 colon; 0.463 µM in the assay with DU-145 prostate; 1.11 µM in the assay with BT-549 breast; 0.275 µM with HL-60(TB) leukemia; 0.226 µM in the assay on HCT-15 colon; 0.41 µM with U251 CNS. Besides, the TGI with HT29 colon is more than 100 µM; in the assay on DU-145 prostate it was more than 37.2 µM; with BT-549 breast it was 69.6 µM; with HL-60(TB) leukemia it was 0.788 µM; in the assay with HCT-15 colon, 20.1 µM; in the assay on U251 CNS it was 19.8 µM.

As to `CSc1ccc(NC(=O)CCl)cc1`, the TGI with HT29 colon, with DU-145 prostate, in the assay on HL-60(TB) leukemia, with MDA-MB-435, with HCT-15 colon and in the assay on U251 CNS was more than 10 µM throughout.

As to `Cc1nc2sc(C(=O)Nc3cccc(Cl)c3C)c(N)c2cc1C(O)c1ccccc1` (centres undefined), the GI50 in the assay with HT29 colon is 0.0355 µM; with DU-145 prostate, 0.0454 µM; in the assay on BT-549 breast, 0.124 µM; with HL-60(TB) leukemia, 0.0289 µM; in the assay on HCT-15 colon, 0.033 µM; in the assay with U251 CNS it was 0.039 µM. Further, the TGI with HT29 colon was 8.35 µM; with DU-145 prostate, 8.5 µM; in the assay with BT-549 breast, 3 µM; in the assay with HL-60(TB) leukemia, 0.133 µM; with HCT-15 colon, 10.5 µM; in the assay with U251 CNS it was 13.8 µM.

Consider `COc1ccc(/C=C\c2cc(OC)c(OC)c(OC)c2)cc1N/C=C\C(=O)c1c[nH]c2ccccc12`, for which the GI50 in the assay on HT29 colon, in the assay with DU-145 prostate, in the assay on HCT-15 colon and in the assay on U251 CNS was less than 0.01 µM in each case. The TGI was more than 100 µM in the assay on HT29 colon, 0.0142 µM in the assay on DU-145 prostate, more than 100 µM in the assay with HCT-15 colon and 47.8 µM in the assay with U251 CNS.

For `COc1cc(NC(=O)c2cc3ccccc3cc2O)c(OC)cc1Cl`, the GI50 was 2.89 µM with HT29 colon; 2.67 µM with DU-145 prostate; 1.65 µM in the assay on BT-549 breast; 1.32 µM in the assay on HL-60(TB) leukemia; 1.95 µM with HCT-15 colon; 1.87 µM with U251 CNS. Moreover, the TGI with HT29 colon was 19.8 µM; in the assay on DU-145 prostate, 8.07 µM; with BT-549 breast, 5.05 µM; in the assay on HL-60(TB) leukemia, 15.3 µM; in the assay with HCT-15 colon, 8.4 µM; in the assay on U251 CNS, 5.23 µM.

(Values after PubChem BioAssay (NCI).)
